Measurements from ChEMBL document CHEMBL1201862, “PubChem BioAssay data set” (2004).
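Cells were grown in 96-well plates and exposed to each compound for 48 hours at five concentrations; endpoints were interpolated linearly between bracketing concentrations, or set to the highest concentration if not reached. At the GI50, growth is halved.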 Active and inactive are the calls of the source. Rule as the data show it: active = GI50 up to about 1.1 µM and inactive = higher.

What was measured:
Experiment in all cases: DTP human tumour cell line panel, 48 h
SF-539 = tested on: SF-539
IGROV-1 = tested on: IGROV-1
MDA-MB-231 = tested on: MDA-MB-231
KM12 = tested on: KM12
NCI-H226 = tested on: NCI-H226
NCI/ADR-RES = tested on: NCI/ADR-RES
NCI-H460 = tested on: NCI-H460
MDA-MB-435 = tested on: MDA-MB-435
PC-3 = tested on: PC-3
HCC 2998 = tested on: HCC 2998
CCRF-CEM = tested on: CCRF-CEM
SF-295 = tested on: SF-295
HOP-92 = tested on: HOP-92
DU-145 = tested on: DU-145
MCF7 = tested on: MCF7
SK-OV-3 = tested on: SK-OV-3
T47D = tested on: T47D
OVCAR-8 = tested on: OVCAR-8
HT-29 = tested on: HT-29
UACC-257 = tested on: UACC-257
LOX IMVI = tested on: LOX IMVI
NCI-H23 = tested on: NCI-H23
SNB-75 = tested on: SNB-75
SN12C = tested on: SN12C
SK-MEL-2 = tested on: SK-MEL-2
EKVX = tested on: EKVX
CAKI-1 = tested on: CAKI-1
SNB-19 = tested on: SNB-19
NCI-H522 = tested on: NCI-H522
RXF 393 = tested on: RXF 393
OVCAR-4 = tested on: OVCAR-4
SW-620 = tested on: SW-620
Malme-3M = tested on: Malme-3M
M14 = tested on: M14
SK-MEL-28 = tested on: SK-MEL-28
UACC-62 = tested on: UACC-62
U-251 = tested on: U-251
K562 = tested on: K562
COLO 205 = tested on: COLO 205
ACHN = tested on: ACHN
TK-10 = tested on: TK-10
UO-31 = tested on: UO-31
MDA-N = tested on: MDA-N
SR = tested on: SR
BT-549 = tested on: BT-549
OVCAR-3 = tested on: OVCAR-3
HCT-116 = tested on: HCT-116
786-0 = tested on: 786-0
HL-60 = tested on: HL-60
MOLT-4 = tested on: MOLT-4
A549 = tested on: A549
OVCAR-5 = tested on: OVCAR-5
HCT-15 = tested on: HCT-15
SK-MEL-5 = tested on: SK-MEL-5
RPMI-8226 = tested on: RPMI-8226
SF-268 = tested on: SF-268
HOP-62 = tested on: HOP-62
A498 = tested on: A498

In the case of Nc1c2ccccc2nc2c1ccc1ncccc12, the GI50 (SF-539) is reported as 14.7 µM (inactive), the GI50 (IGROV-1) is reported as 12.9 µM (inactive) and the GI50 (MDA-MB-231) is reported as 20.8 µM (inactive). The GI50 (KM12) was 15.1 µM (inactive), the GI50 (NCI-H226) was 13.9 µM (inactive) and the GI50 (NCI/ADR-RES) was 19.9 µM (inactive). For the same molecule, the GI50 (NCI-H460) was 5.83 µM (inactive), the GI50 (MDA-MB-435) was 27.8 µM (inactive) and the GI50 (PC-3) was 16.3 µM (inactive). The GI50 (HCC 2998) was 8.99 µM (inactive), the GI50 (CCRF-CEM) was 6.78 µM (inactive) and the GI50 (SF-295) was 21.8 µM (inactive). The GI50 (HOP-92) was 22.8 µM (inactive), the GI50 (DU-145) was 28.2 µM (inactive) and the GI50 (MCF7) was 6.46 µM (inactive). For the same molecule, the GI50 (SK-OV-3) was 30.5 µM (inactive), the GI50 (T47D) was 27.5 µM (inactive) and the GI50 (OVCAR-8) was 21.2 µM (inactive). For the same molecule, the GI50 (HT-29) was 11.5 µM (inactive), the GI50 (UACC-257) was 28.8 µM (inactive) and the GI50 (LOX IMVI) was 6.03 µM (inactive). For the same molecule, the GI50 (NCI-H23) was 17.4 µM (inactive), the GI50 (SNB-75) was 22.3 µM (inactive) and the GI50 (SN12C) was 21.1 µM (inactive). For the same molecule, the GI50 (SK-MEL-2) was 18.6 µM (inactive), the GI50 (EKVX) was 27.1 µM (inactive) and the GI50 (CAKI-1) was 25.7 µM (inactive). The GI50 (SNB-19) was 36.8 µM (inactive), the GI50 (NCI-H522) was 12 µM (inactive) and the GI50 (RXF 393) was 24.8 µM (inactive). The GI50 (OVCAR-4) was 17.9 µM (inactive), the GI50 (SW-620) was 11.7 µM (inactive) and the GI50 (Malme-3M) was 12.4 µM (inactive). The GI50 (M14) was 19.4 µM (inactive), the GI50 (SK-MEL-28) was 33.7 µM (inactive) and the GI50 (UACC-62) was 14.5 µM (inactive). For the same molecule, the GI50 (U-251) was 39.1 µM (inactive), the GI50 (K562) was 12.5 µM (inactive) and the GI50 (COLO 205) was 20.3 µM (inactive). For the same molecule, the GI50 (ACHN) was 5.38 µM (inactive), the GI50 (TK-10) was 34.1 µM (inactive) and the GI50 (UO-31) was 10.1 µM (inactive). The GI50 (MDA-N) was 28.1 µM (inactive), the GI50 (SR) was 12.2 µM (inactive) and the GI50 (BT-549) was 48.3 µM (inactive). The GI50 (OVCAR-3) was 24 µM (inactive), the GI50 (HCT-116) was 5.22 µM (inactive) and the GI50 (786-0) was 9.79 µM (inactive). The GI50 (HL-60) was 4.32 µM (inactive), the GI50 (MOLT-4) was 5.15 µM (inactive) and the GI50 (A549) was 21.9 µM (inactive). For the same molecule, the GI50 (OVCAR-5) was 21.5 µM (inactive), the GI50 (HCT-15) was 14.2 µM and the GI50 (SK-MEL-5) was 28.4 µM (inactive).
For N=C(N)C1CN(CCc2c[nH]c3ccccc23)C(=O)NC1=O (stereo unspecified), the GI50 (IGROV-1) was > 100 µM (inactive), the GI50 (MDA-MB-231) was > 100 µM (inactive) and the GI50 (NCI-H226) was > 100 µM (inactive). The GI50 (NCI/ADR-RES) was > 100 µM (inactive), the GI50 (NCI-H460) was > 100 µM (inactive) and the GI50 (MDA-MB-435) was > 100 µM (inactive). The GI50 (PC-3) was > 100 µM (inactive), the GI50 (HCC 2998) was > 100 µM (inactive) and the GI50 (CCRF-CEM) was > 100 µM (inactive). The GI50 (SF-295) was > 100 µM (inactive), the GI50 (HOP-92) was > 100 µM (inactive) and the GI50 (DU-145) was > 100 µM (inactive). For the same molecule, the GI50 (MCF7) was > 100 µM (inactive), the GI50 (RPMI-8226) was > 100 µM (inactive) and the GI50 (SK-OV-3) was > 100 µM (inactive). The GI50 (T47D) was > 100 µM (inactive), the GI50 (OVCAR-8) was > 100 µM (inactive) and the GI50 (HT-29) was > 100 µM (inactive). For the same molecule, the GI50 (UACC-257) was > 100 µM (inactive), the GI50 (SF-268) was > 100 µM (inactive) and the GI50 (LOX IMVI) was > 100 µM (inactive). For the same molecule, the GI50 (NCI-H23) was > 100 µM (inactive), the GI50 (SNB-75) was > 100 µM (inactive) and the GI50 (SN12C) was > 100 µM (inactive). The GI50 (EKVX) was > 100 µM (inactive), the GI50 (SNB-19) was > 100 µM (inactive) and the GI50 (OVCAR-4) was > 100 µM (inactive). The GI50 (SW-620) was > 100 µM (inactive), the GI50 (Malme-3M) was > 100 µM (inactive) and the GI50 (M14) was > 100 µM (inactive). For the same molecule, the GI50 (SK-MEL-28) was > 100 µM (inactive), the GI50 (UACC-62) was > 100 µM (inactive) and the GI50 (U-251) was > 100 µM (inactive). For the same molecule, the GI50 (K562) was > 100 µM (inactive), the GI50 (COLO 205) was > 100 µM (inactive) and the GI50 (ACHN) was > 100 µM (inactive). For the same molecule, the GI50 (TK-10) was > 100 µM (inactive), the GI50 (UO-31) was > 100 µM (inactive) and the GI50 (MDA-N) was > 100 µM (inactive). The GI50 (SR) was > 100 µM (inactive), the GI50 (BT-549) was > 100 µM (inactive) and the GI50 (OVCAR-3) was > 100 µM (inactive). For the same molecule, the GI50 (HCT-116) was > 100 µM (inactive), the GI50 (786-0) was > 100 µM (inactive) and the GI50 (HL-60) was > 100 µM (inactive). The GI50 (HOP-62) was > 100 µM (inactive), the GI50 (MOLT-4) was > 100 µM (inactive) and the GI50 (A549) was > 100 µM (inactive). For the same molecule, the GI50 (OVCAR-5) was > 100 µM (inactive), the GI50 (HCT-15) was over 100 µM and the GI50 (A498) was > 100 µM (inactive). The GI50 (SK-MEL-5) was > 100 µM (inactive).
